In ChEMBL document CHEMBL1201862, “PubChem BioAssay data set” (2004):
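Protocol summary: plate cells (96-well), add compound at 5 concentrations, incubate 48 h, interpolate endpoints linearly. GI50 is the concentration that inhibits growth by half.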 Active and inactive are the calls of the source. Cut-off read from the data, not from the text of the source: active = GI50 up to about 1.1 µM and inactive = higher.

What was measured:
Experiment in all cases: NCI-60 cell line screen, 48 h
HCC 2998 = test system: HCC 2998
CCRF-CEM = test system: CCRF-CEM
HCT-15 = test system: HCT-15
MDA-MB-435 = test system: MDA-MB-435
SF-268 = test system: SF-268
HOP-92 = test system: HOP-92
PC-3 = test system: PC-3
SN12C = test system: SN12C
SNB-19 = test system: SNB-19
K562 = test system: K562
HOP-62 = test system: HOP-62
ACHN = test system: ACHN
SF-539 = test system: SF-539
SF-295 = test system: SF-295
CAKI-1 = test system: CAKI-1
NCI/ADR-RES = test system: NCI/ADR-RES
NCI-H23 = test system: NCI-H23
HT-29 = test system: HT-29
A549 = test system: A549
TK-10 = test system: TK-10

Row | Compound | GI50 (HCC 2998) | GI50 (CCRF-CEM) | GI50 (HCT-15) | GI50 (MDA-MB-435) | GI50 (SF-268) | GI50 (HOP-92) | GI50 (PC-3) | GI50 (SN12C) | GI50 (SNB-19) | GI50 (K562) | GI50 (HOP-62) | GI50 (ACHN) | GI50 (SF-539) | GI50 (SF-295) | GI50 (CAKI-1) | GI50 (NCI/ADR-RES) | GI50 (NCI-H23) | GI50 (HT-29) | GI50 (A549) | GI50 (TK-10)
1 | CCOc1cc2c(cc1O)CC[C@@H]1[C@@H]2CC[C@]2(C)[C@@H](O)CC[C@@H]12 | 0.532 µM (active) | 0.0274 µM (active) | < 0.0138 µM | 0.0112 µM (active) | 0.0612 µM (active) | 0.0537 µM (active) | 1.62 µM (inactive) | 0.0778 µM (active) | 0.0334 µM (active) | < 0.0171 µM (active) | 0.0447 µM (active) | 0.0123 µM (active) | 0.0158 µM (active) | 0.138 µM (active) | 0.0644 µM (active) | 0.0173 µM (active) | 0.0667 µM (active) | 4.88 µM (inactive) | 0.0378 µM (active) | –
2 | CCN1C(=O)C(=C/C=C/c2ccc(N(CC)CC)cc2)C(=O)N(CC)C1=S | > 100 µM (inactive) | 32.4 µM (inactive) | > 100 µM | 86.9 µM (inactive) | > 100 µM (inactive) | > 100 µM (inactive) | 72.4 µM (inactive) | > 100 µM (inactive) | > 100 µM (inactive) | 83.9 µM (inactive) | 21.7 µM (inactive) | > 100 µM (inactive) | 72.1 µM (inactive) | > 100 µM (inactive) | > 100 µM (inactive) | 33.9 µM (inactive) | > 100 µM (inactive) | > 100 µM (inactive) | > 100 µM (inactive) | > 100 µM (inactive)
3 | Cc1cc2c(C)cc(=O)[nH]c2cc1N | 61.4 µM (inactive) | > 100 µM (inactive) | > 100 µM | > 100 µM (inactive) | – | > 100 µM (inactive) | 34.8 µM (inactive) | > 100 µM (inactive) | > 100 µM (inactive) | > 100 µM (inactive) | > 100 µM (inactive) | > 100 µM (inactive) | > 100 µM (inactive) | > 100 µM (inactive) | > 100 µM (inactive) | > 100 µM (inactive) | > 100 µM (inactive) | 81.1 µM (inactive) | > 100 µM (inactive) | –
4 | COc1cc(C2SCC(=O)N2c2ccc(Cl)cc2)cc(I)c1O (configuration not stated) | 65.2 µM (inactive) | 46.1 µM (inactive) | – | 1.56 µM (inactive) | > 86.7 µM (inactive) | 57 µM (inactive) | > 100 µM (inactive) | > 100 µM (inactive) | > 100 µM (inactive) | 0.501 µM (active) | – | – | > 35.9 µM (inactive) | 4.72 µM (inactive) | 6.43 µM (inactive) | > 69 µM (inactive) | 25.5 µM (inactive) | > 100 µM (inactive) | 46.7 µM (inactive) | > 94.6 µM (inactive)
5 | CCOC(=O)/C(=C\NC(=S)Nc1ccc(OCC)cc1)C(=O)c1ccccc1 | > 100 µM (inactive) | > 100 µM (inactive) | > 100 µM | > 100 µM (inactive) | > 100 µM (inactive) | 8.26 µM (inactive) | > 100 µM (inactive) | > 100 µM (inactive) | > 100 µM (inactive) | > 100 µM (inactive) | > 100 µM (inactive) | > 100 µM (inactive) | > 100 µM (inactive) | > 100 µM (inactive) | > 100 µM (inactive) | > 100 µM (inactive) | > 100 µM (inactive) | > 100 µM (inactive) | > 100 µM (inactive) | –
6 | O=C(/C(=C\I)c1ccccc1)c1ccccc1 | 3.94 µM (inactive) | 14.5 µM (inactive) | 3.33 µM | 12.6 µM (inactive) | 13.9 µM (inactive) | 13.7 µM (inactive) | 2.71 µM (inactive) | 18 µM (inactive) | 8.95 µM (inactive) | 3.31 µM (inactive) | 4.19 µM (inactive) | 13 µM (inactive) | 15.2 µM (inactive) | 16.9 µM (inactive) | 1.51 µM (inactive) | 19.4 µM (inactive) | 9.89 µM (inactive) | 1.93 µM (inactive) | 22.4 µM (inactive) | 16 µM (inactive)
7 | O=C1c2cccc3cc([N+](=O)[O-])cc(c23)C(=O)N1CCCN1CCN(CCCNc2ccc3ncn4c5ccccc5c(=O)c2c34)CC1 | < 0.005 µM (active) | < 0.005 µM (active) | < 0.005 µM | < 0.005 µM (active) | < 0.005 µM (active) | 0.013 µM (active) | < 0.005 µM (active) | < 0.005 µM (active) | < 0.005 µM (active) | – | < 0.005 µM (active) | < 0.005 µM (active) | < 0.005 µM (active) | < 0.005 µM (active) | < 0.005 µM (active) | < 0.005 µM (active) | < 0.005 µM (active) | < 0.005 µM (active) | < 0.005 µM (active) | < 0.005 µM (active)
